Experimental data taken from US8835476B2, “Synthesis of novel antimicrobials” (priority 2005, dated 2014).

Columns and labels:
recombinant E. coli LpxA = target: T1, recombinant E. coli LpxA (Escherichia coli, UniProt P0A722); assay: LpxA assay: acyl-UDP-GlcNAc formation from UDP-[3H]GlcNAc, TLC; assay type: biochemical; details: for inhibition at 5000 µM: 5 mM compound, FIG. 8
T1 construct: 6xHis (C); made in house; host or cells: E. coli BL21 (pET23b)
Summary of the method: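 C-terminal 6×His-tagged E. coli LpxA, expressed in BL21 and purified on nickel resin. Acyl-ACP substrate made enzymatically from V. harveyi ACP and β-hydroxymyristic acid. Activity followed by TLC mobility shift of UDP-[3H]GlcNAc on acylation.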

E. coli BL21 cells = assay: Inhibition of E. coli growth in liquid culture (OD 600 nm); assay type: cell-based; details: for growth inhibitory activity, E. coli liquid culture: only at the highest concentration tested (1 mM); for growth inhibitory activity, E. coli liquid culture / growth of E. coli in liquid culture: FIG. 11
Method: Compounds to be tested were dissolved in ethanol or DMSO and subsequently diluted into of Luria broth. The final concentration of ethanol (2%, v/v) or DMSO (1%, v/v) had minimal effect on growth rate. Culture tubes were subsequently inoculated with E. coli BL21 or D22 cells to an optical density (at 600 nm) of 0.01 and incubated on a rotary shaker at 37° C. The optical density at 600 nm of 100 μl samples was measured at indicated time points.

[1] = system: LPS synthesis in E. coli strain D22; assay: In vivo LPS synthesis: [3H]galactose incorporation into acid-precipitable material; assay type: cell-based; details: 0.1 mM, FIG. 10B
Method: LpxA catalyzes the first step in the synthesis of lipid A (the hydrophobic anchor of LPS), which is essential for the growth and pathogenesis of many gram-negative bacteria. The inhibition of LpxA activity would therefore result in decreased synthesis of LPS. To measure the synthesis of LPS in vivo, the incorporation of radiolabelled galactose into acid-precipitable material was determined. The E. coli strain used for these studies was D22 (obtained from the E. coli Genetic Stock Center), which contains a mutation in the LpxC gene (lpxC101; Normark et al., 1969, J Bacteriol 97, 1334). Strains harbouring this mutation have an increased susceptibility to antibiotics, in addition to producing approximately 30% less LPS (Grundstrom et al., 1980, J Bacteriol 144, 884.). Bacteria were grown in Luria broth to early-log phase, at which point, 500 μl was transferred to a culture tube containing 1 μl of [^3H]galactose (final concentration, 0.2 mM, 20 μCi/μmol) and mixed. Cultures were incubated at 30° C. for 75 minutes with shaking at 220 rpm. Incorporation was terminated by adding 400 μl of labelled culture to 44.4 μl of 100% trichloroacetic acid (TCA, 10% final concentration) in a 1.5 ml microcentrifuge tube. Tubes were vortexed, incubated on ice for 30 minutes, then centrifuged at 14 000 rpm for 5 minutes at room temperature. The pellet was rinsed twice with 1 ml of ice-cold 10% TCA, resuspended in 50 μl of formic acid, and transferred to a scintillation vial for counting.
Compounds to be tested were dissolved in DMSO and added to the bacterial culture prior to labelling with galactose, and LPS synthesis was determined as described previously. The final concentration of DMSO (1%, v/v) had minimal effect on LPS synthesis.

T1 sequence (P0A722 whole entry): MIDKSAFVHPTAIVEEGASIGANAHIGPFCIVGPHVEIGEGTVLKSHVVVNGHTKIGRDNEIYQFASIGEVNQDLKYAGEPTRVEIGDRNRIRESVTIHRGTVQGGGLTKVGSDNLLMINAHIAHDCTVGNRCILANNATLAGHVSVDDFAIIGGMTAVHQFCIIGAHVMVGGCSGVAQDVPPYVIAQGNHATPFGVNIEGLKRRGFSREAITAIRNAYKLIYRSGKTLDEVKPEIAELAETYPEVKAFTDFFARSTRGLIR

`COC(=O)c1cc(-c2nnn(C)n2)c(C(=O)OC)s1` [DNM-114, 3-(2-methyl-2H-tetrazol-5-yl)-thiophene-2,5-dicarboxylic acid dimethyl ester] gave a melting point of 121 to 122 °C.
In the case of `Cn1nnc(-c2cc(C(=O)O)sc2-c2ccc(F)cc2)n1` [DNM-123, 5-(4-fluorophenyl)-4-(2-methyl-2H-tetrazol-5-yl)thiophene-2-carboxylic acid], the inhibition at 500 µM (recombinant E. coli LpxA; 500 μM, FIG. 9) was roughly 60%, the inhibition at 5000 µM (recombinant E. coli LpxA) was greater than 80% and the “growth inhibitory activity, E. coli liquid culture” value (E. coli BL21 cells) was “Substantial growth inhibitory activity”.
With `CCOC(=O)c1cc(-c2nnn[nH]2)c(-c2ccc(F)cc2)s1` [DNM-124, 5-(4-Fluoro-phenyl)-4-(1H-tetrazol-5-yl)-thiophene-2-carboxylic acid ethyl ester] the inhibition at 5000 µM (recombinant E. coli LpxA) was greater than 80% and the “growth inhibitory activity, E. coli liquid culture” value (E. coli BL21 cells) was “Substantial growth inhibitory activity”.
`CCOC(=O)c1cc(-c2nnn(C)n2)c(-c2ccc(F)cc2)s1` [DNM-125, ethyl 5-(4-fluorophenyl)-4-(2-methyl-2H-tetrazol-5-yl)thiophene-2-carboxylate] showed a melting point of 108 to 110 °C.
In the case of `Fc1ccc(-c2cc(-c3nnn[nH]3)c(-c3ccc(F)cc3)s2)cc1` [DNM-131, 5-(2,5-Bis(4-fluorophenyl)thiophen-3-yl)-1H-tetrazole], the “decrease of LPS synthesis” value [1] was “approximately 70%”, the inhibition at 5000 µM (recombinant E. coli LpxA) was greater than 80% and the “inhibition of LpxA activity” value (recombinant E. coli LpxA; concentrations above 500 μM, FIG. 9) was “almost complete inhibition”. The “growth of E. coli in liquid culture” value (E. coli BL21 cells; 10 μM) was “partial inhibition” and the “growth of E. coli in liquid culture” value (E. coli BL21 cells; 0.1 or 1 mM) was “no growth”.
Work on `Cn1nnc(-c2cc(-c3ccc(F)cc3)sc2-c2ccc(F)cc2)n1` [DNM-132, 5-(2,5-bis(4-fluorophenyl)thiophen-3-yl)-2-methyl-2H-tetrazole] yielded a melting point of 150 to 152 °C.
For `O=C(O)c1sc(-c2ccc(F)cc2)cc1-c1nnn[nH]1` [DNM-141, 5-(4-Fluoro-phenyl)-3-(1H-tetrazol-5-yl)-thiophene-2-carboxylic acid], the inhibition at 5000 µM (recombinant E. coli LpxA) was greater than 80% and the “growth inhibitory effect, E. coli liquid culture” value (E. coli BL21 cells; concentrations tested in FIG. 11) was “no apparent effect”.
With `Cn1nnc(-c2cc(-c3ccc(F)cc3)sc2C(=O)O)n1` [DNM-142, 5-(4-Fluoro-phenyl)-3-(2-methyl-2H-tetrazol-5-yl)-thiophene-2-carboxylic acid] the inhibition at 5000 µM (recombinant E. coli LpxA) was greater than 70%.
`COC(=O)c1sc(-c2ccc(F)cc2)cc1-c1nnn(C)n1` [DNM-144, 5-(4-fluoro-phenyl)-3-(2-methyl-2H-tetrazol-5-yl)-thiophene-2-carboxylic acid methyl ester] showed a melting point of 131.5 to 132.5 °C.
